From US20190330197A1, “SUBSTITUTED NAPHTHALENE DIIMIDES AND THEIR USE” (UCL Business PLC, priority 2015, published 2019)

Legend:
[1] = tested on: human telomeric (F21T) G-quadruplex DNA; assay: FRET quadruplex stabilisation assay, F21T; format: binding; conditions: compound at 1 μM, 60 mM potassium cacodylate buffer pH 7.4
Excerpt: (§1) The ability of the naphthalene diimide compounds to stabilize quadruplex DNA sequences was investigated using a fluorescence resonance energy transfer (FRET) assay modified to be used as a high-throughput screen in a 96-well format. Several quadruplex sequences were studied (including the human telomeric G-quadruplex DNA sequence 5′-FAM-d(GGG[TTAGGG]3)-TAMRA-3′ and the duplex sequence 5′-FAM-d[…]-HEG-[…]-TAMRA-3′ (HEG linker: [(—CH2—CH2—O—)6.
(§2) The labelled oligonucleotides have attached to them the donor fluorophore FAM: 6-carboxyfluorescein and the acceptor fluorophore TAMRA: 6-carboxytetramethylrhodamine. The FRET probe sequences were diluted from stock to the correct concentration (400 nM) in a 60 mM potassium cacodylate buffer (pH 7.4) and then annealed by heating to 85° C. for 10 min, followed by cooling to room temperature in the heating block. The compound was stored as a 10 mM stock solution in DMSO; final solutions (at 2× concentration) were prepared using 10 mM HCl in the initial 1:10 dilution, after which 60 mM potassium cacodylate buffer (pH 7.4) was used in all subsequent steps. The maximum HCl concentration in the reaction volume (at a ligand concentration of 20 μM) is thus 200 μM, well within the range of the buffer used. Relevant controls were also performed to check for interference with the assay. 96-Well plates (MJ Research, Waltham, Mass.) were prepared by aliquoting 50 μl of the annealed DNA into each well, followed by 50 μl of the compound solutions. Measurements were made on a DNA Engine Opticon (MJ Research) with excitation at 450-495 nm and detection at 515-545 nm. Fluorescence readings were taken at intervals of 0.5° C. in the range 30-100° C., with a constant temperature being maintained for 30 s prior to each reading to ensure a stable value. Final analysis of the data was carried out using a script written in the program Origin 7.0 (OriginLab Corp., Northampton, Mass.). The advanced curve-fitting function in Origin 7.0 was used for calculation of ΔTm values. All determinations were performed in triplicate or better. Esds in ΔTm are ±0.1° C.

[2] = tested on: Mia-PaCa2 (pancreatic cancer) cells; assay: SRB growth inhibition, MiaPaCa2; format: cell-based, human; conditions: 96 hr, SRB assay; read-out: short-term 96 hr IC50 MiaPaCa2
Procedure: (§3) Human cancer cell lines and the somatic human cell line WI-38 (lung fibroblast) were purchased from the American Type Culture Collection. Cell lines were maintained in appropriate medium supplemented with 10% foetal bovine serum (Invitrogen, UK), 2 mM L-glutamine (Invitrogen, Netherlands), and other components as specified by the suppliers. Cell lines were maintained at 37° C., 5% CO2 and routinely passaged. Drugs were dissolved in DMSO and filtered through 0.22 μm pore-size filter units before addition to cell line appropriate media. Cellular growth inhibition was measured using the sulforhodamine B (SRB) assay in 96 well plates. Fifty percent inhibitory concentrations (IC50) were determined by taking the mean absorbance at 540 nm for each drug concentration expressed as a percentage of the absorbance of untreated control wells.

[3] = tested on: Kras21 sequence from the promoter region of the kras gene; assay: FRET quadruplex stabilisation assay, Kras21; format: binding; conditions: compound at 1 μM, 60 mM potassium cacodylate buffer pH 7.4
Excerpt: as §1, §2

[4] = tested on: Hsp90A sequence from the HSP90 promoter; assay: FRET quadruplex stabilisation assay, Hsp90A; format: binding; conditions: compound at 1 μM, 60 mM potassium cacodylate buffer pH 7.4
Excerpt: as §1, §2

[5] = tested on: Kras32 sequence from the promoter region of the kras gene; assay: FRET quadruplex stabilisation assay, Kras32; format: binding; conditions: compound at 1 μM, 60 mM potassium cacodylate buffer pH 7.4
Excerpt: as §1, §2

[6] = tested on: MCF7 (breast) cells; assay: SRB growth inhibition, MCF7; format: cell-based, human; conditions: 96 hr, SRB assay; read-out: short-term 96 hr IC50 MCF7
Procedure: as §3

[7] = tested on: Panc1 (pancreatic cancer) cells; assay: SRB growth inhibition, Panc1; format: cell-based, human; conditions: 96 hr, SRB assay; read-out: short-term 96 hr IC50 Panc1
Procedure: as §3

[8] = tested on: WI38 (lung fibroblast) cells; assay: SRB growth inhibition, WI38; format: cell-based, human; conditions: 96 hr, SRB assay; read-out: short-term 96 hr IC50 WI38
Procedure: as §3

[9] = tested on: Hsp90B sequence from the HSP90 promoter; assay: FRET quadruplex stabilisation assay, Hsp90B; format: binding; conditions: compound at 1 μM, 60 mM potassium cacodylate buffer pH 7.4
Excerpt: as §1, §2

[10] = tested on: Bcl-2 sequence from the promoter region of the bcl-2 gene; assay: FRET quadruplex stabilisation assay, Bcl-2; format: binding; conditions: compound at 1 μM, 60 mM potassium cacodylate buffer pH 7.4
Excerpt: as §1, §2

[11] = tested on: Tloop (representing duplex DNA); assay: FRET assay, Tloop duplex DNA; format: binding; conditions: compound at 1 μM, 60 mM potassium cacodylate buffer pH 7.4
Excerpt: as §1, §2

[12] = tested on: ALT (Alternative Lengthening of Telomeres) cell line; assay: SRB growth inhibition, ALT; format: cell-based, human; conditions: 96 hr, SRB assay; read-out: short-term 96 hr IC50 ALT
Procedure: as §3

[13] = tested on: A549 (lung cancer) cells; assay: SRB growth inhibition, A549; format: cell-based, human; conditions: 96 hr, SRB assay; read-out: short-term 96 hr IC50 A549
Procedure: as §3

Structure (SMILES)	ΔTm F21T [1] [°C]	IC50 [2] [nM]	ΔTm Kras21 [3] [°C]	ΔTm Hsp90A [4] [°C]	ΔTm Kras32 [5] [°C]	IC50 [6] [nM]	IC50 [7] [nM]	IC50 [8] [nM]	ΔTm Hsp90B [9] [°C]	ΔTm Bcl-2 [10] [°C]	ΔTm Tloop [11] [°C]	IC50 [12] [nM]	IC50 [13] [nM]
CN1CCN(CCCNc2cc3c4c(ccc5c4c2C(=O)N(CCCN2CCOCC2)C5=O)C(=O)N(CCCN2CCOCC2)C3=O)CC1 [Compound 4a, 4-((3-(4-methylpiperazin-1-yl)propyl)amino)-2,7-bis(3-morpholinopropyl)benzo[Imn][3,8]phenanthroline-1,3,6,8(2H,7H)-tetraone]	14.3	59	9.8	19.8	6.1	357	45	1830	16.5	15.8	0.8	224	67
CN1CCN(CCNc2cc3c4c(ccc5c4c2C(=O)N(CCCN2CCOCC2)C5=O)C(=O)N(CCCN2CCOCC2)C3=O)CC1 [Compound 4b, 4-((2-(4-methylpiperazin-1-yl)ethyl)amino)-2,7-bis(3-morpholinopropyl)benzo[Imn][3,8]phenanthroline-1,3,6,8(2H,7H)-tetraone]	12.3	48	11.0	18.1	6.1	316	46	1490	15.0	15.1	0.4	85	86
O=C1c2ccc3c4c(c(NCCc5ccccn5)cc(c24)C(=O)N1CCCN1CCOCC1)C(=O)N(CCCN1CCOCC1)C3=O [Compound 4d, 2,7-bis(3-morpholinopropyl)-4-((2-(pyridin-2-yl)ethyl)amino)benzo[Imn][3,8]phenanthroline-1,3,6,8(2H,7H)-tetraone]	<2	220	3.0	2.5	1.5	1070	340	2240	<2	2.8	0	1290	130
O=C1c2ccc3c4c(c(NCCCCN5CCCC5)cc(c24)C(=O)N1CCCN1CCOCC1)C(=O)N(CCCN1CCOCC1)C3=O [Compound 4e, 2,7-bis(3-morpholinopropyl)-4-((4-(pyrrolidin-1-yl)butyl)amino)benzo[Imn][3,8]phenanthroline-1,3,6,8(2H,7H)-tetraone]	15.9	36	11.7	20.6	6.6	222	33	1220	16.9	16.1	0.2	89	26
O=C1c2ccc3c4c(c(NCCN5CCCCC5)cc(c24)C(=O)N1CCCN1CCOCC1)C(=O)N(CCCN1CCOCC1)C3=O [Compound 4f, 2,7-bis(3-morpholinopropyl)-4-((2-(piperidin-1-yl)ethyl)amino)benzo[Imn][3,8]phenanthroline-1,3,6,8(2H,7H)-tetraone]	9.8	108	4.8	9.1	2.2	1110	84	5330	8.7	5.9	0.6	535	198
